From ChEMBL document CHEMBL1146086, “Design, synthesis, and evaluation of near infrared fluorescent multimeric RGD peptides for targeting tumors” (J Med Chem, 2006)
Numbered stars: 1 amine (or outer) side, 2 acyl side, 3 side chain; on linkers, the order of the positions; unused ones are H or OH. Bridge positions count the residues as written; N and C are the ends. Peptide text beside a SMILES is read from it. I, II: the chains in the order shown. * marks the point of attachment. X2 = CC1(C)C(/C=C/C=C/C=C/C=C2/N(CCC(=O)[*:1])c3ccc4ccccc4c3C2(C)C)=[N+](CCC(=O)[*:2])c2ccc3ccccc3c21; X1 = CC1(C)C(/C=C/C=C/C=C/C=C2/N(CCC(=O)[*:1])c3ccc4ccccc4c3C2(C)C)=[N+](CC(=O)[*:2])c2ccc3ccccc3c21; Cypate = CC1(C)C(/C=C/C=C/C=C/C=C2/N(CCC(=O)*)c3ccc4ccccc4c3C2(C)C)=[N+](CCC(=O)O)c2ccc3ccccc3c21; X3 = CC1(C)C(/C=C/C=C/C=C/C=C2/N(CCC(=O)O)c3ccc4ccccc4c3C2(C)C)=[N+](CC(=O)*)c2ccc3ccccc3c21

Target: Integrin alpha-V/beta-3 (Homo sapiens, UniProt P05106+P06756)
Experiment: Displacement of [125I]echistatin from AlphaV-beta-3 integrin receptor
Assay type: protein-complex assay

Integrin alpha-V/beta-3, sequence (P05106 27-788 limits assumed): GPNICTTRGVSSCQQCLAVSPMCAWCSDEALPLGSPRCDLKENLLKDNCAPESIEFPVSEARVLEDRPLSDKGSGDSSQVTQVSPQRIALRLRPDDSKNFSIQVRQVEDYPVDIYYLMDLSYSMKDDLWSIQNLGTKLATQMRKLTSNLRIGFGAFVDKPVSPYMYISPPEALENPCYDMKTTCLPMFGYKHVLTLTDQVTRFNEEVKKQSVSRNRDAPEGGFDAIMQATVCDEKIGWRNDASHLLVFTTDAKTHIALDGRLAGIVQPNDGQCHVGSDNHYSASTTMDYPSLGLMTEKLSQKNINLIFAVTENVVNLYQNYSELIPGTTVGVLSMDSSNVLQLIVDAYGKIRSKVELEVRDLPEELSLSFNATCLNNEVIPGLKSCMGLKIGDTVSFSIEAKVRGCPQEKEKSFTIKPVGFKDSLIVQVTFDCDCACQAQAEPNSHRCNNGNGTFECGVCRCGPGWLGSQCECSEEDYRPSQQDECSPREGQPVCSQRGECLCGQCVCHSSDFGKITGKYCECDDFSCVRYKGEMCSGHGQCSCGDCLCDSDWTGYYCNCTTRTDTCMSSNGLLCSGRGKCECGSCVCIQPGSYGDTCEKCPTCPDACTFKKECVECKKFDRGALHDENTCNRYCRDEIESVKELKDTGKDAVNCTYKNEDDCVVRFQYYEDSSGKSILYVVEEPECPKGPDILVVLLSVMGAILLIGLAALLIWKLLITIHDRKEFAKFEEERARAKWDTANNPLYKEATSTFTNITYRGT
Integrin alpha-V/beta-3, sequence (P06756 31-889 limits assumed): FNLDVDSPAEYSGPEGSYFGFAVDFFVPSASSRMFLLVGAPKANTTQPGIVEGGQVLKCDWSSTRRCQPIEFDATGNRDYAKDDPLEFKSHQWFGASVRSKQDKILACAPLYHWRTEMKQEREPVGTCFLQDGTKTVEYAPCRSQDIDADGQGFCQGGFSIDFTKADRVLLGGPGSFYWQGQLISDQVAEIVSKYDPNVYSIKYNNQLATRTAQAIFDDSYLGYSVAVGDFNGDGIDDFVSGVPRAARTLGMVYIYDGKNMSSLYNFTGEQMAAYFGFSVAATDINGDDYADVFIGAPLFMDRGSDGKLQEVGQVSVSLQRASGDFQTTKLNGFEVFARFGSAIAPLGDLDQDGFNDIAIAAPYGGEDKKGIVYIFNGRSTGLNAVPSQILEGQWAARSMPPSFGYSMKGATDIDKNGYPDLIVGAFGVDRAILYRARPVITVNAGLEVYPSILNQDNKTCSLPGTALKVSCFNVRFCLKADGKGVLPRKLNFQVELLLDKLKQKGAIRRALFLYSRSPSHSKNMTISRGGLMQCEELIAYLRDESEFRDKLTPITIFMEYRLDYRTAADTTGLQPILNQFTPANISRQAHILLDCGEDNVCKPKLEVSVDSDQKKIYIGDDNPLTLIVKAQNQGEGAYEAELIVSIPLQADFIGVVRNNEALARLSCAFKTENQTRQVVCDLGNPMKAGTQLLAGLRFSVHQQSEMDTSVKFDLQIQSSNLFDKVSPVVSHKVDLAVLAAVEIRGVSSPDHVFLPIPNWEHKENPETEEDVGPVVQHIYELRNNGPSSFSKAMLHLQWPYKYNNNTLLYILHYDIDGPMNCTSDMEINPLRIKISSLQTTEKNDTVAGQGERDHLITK
Integrin alpha-V/beta-3, sequence (P06756 891-1048 limits assumed): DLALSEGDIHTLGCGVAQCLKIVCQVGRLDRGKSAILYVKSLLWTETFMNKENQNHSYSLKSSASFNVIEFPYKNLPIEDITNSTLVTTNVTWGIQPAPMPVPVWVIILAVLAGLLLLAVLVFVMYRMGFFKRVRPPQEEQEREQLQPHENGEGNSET

SMILES	IC50
CC1(C)C(/C=C/C=C/C=C/C=C2/N(CCC(=O)N[C@@H](CCCN=C(N)N)C(=O)NCC(=O)N[C@@H](CC(=O)O)C(=O)N[C@@H](CCCN=C(N)N)C(=O)NCC(=O)N[C@@H](CC(=O)O)C(=O)N[C@@H](CCCN=C(N)N)C(=O)NCC(=O)N[C@@H](CC(=O)O)C(=O)N[C@@H](CCCN=C(N)N)C(=O)NCC(=O)N[C@@H](CC(=O)O)C(N)=O)c3ccc4ccccc4c3C2(C)C)=[N+](CCC(=O)O)c2ccc3ccccc3c21 (Cypate-RGDRGDRGDRGD-NH2)	259 nM
CC1(C)C(/C=C/C=C/C=C/C=C2/N(CCC(=O)O)c3ccc4ccccc4c3C2(C)C)=[N+](CC(=O)N[C@@H](CCCN=C(N)N)C(=O)NCC(=O)N[C@@H](CC(=O)O)C(=O)N[C@@H](CCCN=C(N)N)C(=O)NCC(=O)N[C@@H](CC(=O)O)C(=O)N[C@@H](CCCN=C(N)N)C(=O)NCC(=O)N[C@@H](CC(=O)O)C(N)=O)c2ccc3ccccc3c21 (X3-RGDRGDRGD-NH2)	481 nM
CC1(C)C(/C=C/C=C/C=C/C=C2/N(CCC(=O)O)c3ccc4ccccc4c3C2(C)C)=[N+](CC(=O)N[C@@H](CCCN=C(N)N)C(=O)NCC(=O)N[C@@H](CC(=O)O)C(=O)N[C@@H](CCCN=C(N)N)C(=O)NCC(=O)N[C@@H](CC(=O)O)C(N)=O)c2ccc3ccccc3c21	730 nM
CC1(C)C(/C=C/C=C/C=C/C=C2/N(CCC(=O)N[C@@H](CCCN=C(N)N)C(=O)NCC(=O)N[C@@H](CC(=O)O)C(=O)N[C@@H](CCCN=C(N)N)C(=O)NCC(=O)N[C@@H](CC(=O)O)C(=O)N[C@@H](CCCN=C(N)N)C(=O)NCC(=O)N[C@@H](CC(=O)O)C(N)=O)c3ccc4ccccc4c3C2(C)C)=[N+](CC(=O)N[C@@H](CCCN=C(N)N)C(=O)NCC(=O)N[C@@H](CC(=O)O)C(=O)N[C@@H](CCCN=C(N)N)C(=O)NCC(=O)N[C@@H](CC(=O)O)C(=O)N[C@@H](CCCN=C(N)N)C(=O)NCC(=O)N[C@@H](CC(=O)O)C(N)=O)c2ccc3ccccc3c21 (I: RGDRGDRGD-NH2 / II: RGDRGDRGD-NH2; linker I:N-II:N via X1)	132 nM
CC1(C)C(/C=C/C=C/C=C/C=C2/N(CCC(=O)N[C@@H](CCCN=C(N)N)C(=O)NCC(=O)N[C@@H](CC(=O)O)C(=O)N[C@@H](CCCN=C(N)N)C(=O)NCC(=O)N[C@@H](CC(=O)O)C(=O)N[C@@H](CCCN=C(N)N)C(=O)NCC(=O)N[C@@H](CC(=O)O)C(=O)N[C@@H](CCCN=C(N)N)C(=O)NCC(=O)N[C@@H](CC(=O)O)C(N)=O)c3ccc4ccccc4c3C2(C)C)=[N+](CCC(=O)N[C@@H](CCCN=C(N)N)C(=O)NCC(=O)N[C@@H](CC(=O)O)C(=O)N[C@@H](CCCN=C(N)N)C(=O)NCC(=O)N[C@@H](CC(=O)O)C(=O)N[C@@H](CCCN=C(N)N)C(=O)NCC(=O)N[C@@H](CC(=O)O)C(=O)N[C@@H](CCCN=C(N)N)C(=O)NCC(=O)N[C@@H](CC(=O)O)C(N)=O)c2ccc3ccccc3c21 (I: RGDRGDRGDRGD-NH2 / II: RGDRGDRGDRGD-NH2; linker I:N-II:N via X2)	79.6 nM
CC1(C)C(/C=C/C=C/C=C/C=C2/N(CCC(=O)NCCCC[C@@H]3NC(=O)[C@@H](Cc4ccccc4)NC(=O)[C@H](CC(=O)O)NC(=O)CNC(=O)[C@H](CCCNC(=N)N)NC3=O)c3ccc4ccccc4c3C2(C)C)=[N+](CCC(=O)O)c2ccc3ccccc3c21	63.9 nM
CC1(C)C(/C=C/C=C/C=C/C=C2/N(CCC(=O)N[C@@H](CCCN=C(N)N)C(=O)NCC(=O)N[C@@H](CC(=O)O)C(=O)N[C@@H](CCCN=C(N)N)C(=O)NCC(=O)N[C@@H](CC(=O)O)C(N)=O)c3ccc4ccccc4c3C2(C)C)=[N+](CC(=O)N[C@@H](CCCN=C(N)N)C(=O)NCC(=O)N[C@@H](CC(=O)O)C(=O)N[C@@H](CCCN=C(N)N)C(=O)NCC(=O)N[C@@H](CC(=O)O)C(N)=O)c2ccc3ccccc3c21	104 nM
